Results as given in PMC12481613, “Boldine as a neuroprotective agent against motor neuron degeneration in models of amyotrophic lateral sclerosis” (Frontiers in Cellular Neuroscience, 2025).

Target: T1, connexin 43 (Cx43) hemichannel (Homo sapiens, UniProt P17302)
T1 construct: gene GJA1; human Cx43 tagged with GFP (hCx43-GFP)
Experiment: TO-PRO-3 dye uptake in HeLa cells transfected with hCx43-GFP, Ca2+-free HBSS
Format: cell-based

T1 sequence (P17302 2-382): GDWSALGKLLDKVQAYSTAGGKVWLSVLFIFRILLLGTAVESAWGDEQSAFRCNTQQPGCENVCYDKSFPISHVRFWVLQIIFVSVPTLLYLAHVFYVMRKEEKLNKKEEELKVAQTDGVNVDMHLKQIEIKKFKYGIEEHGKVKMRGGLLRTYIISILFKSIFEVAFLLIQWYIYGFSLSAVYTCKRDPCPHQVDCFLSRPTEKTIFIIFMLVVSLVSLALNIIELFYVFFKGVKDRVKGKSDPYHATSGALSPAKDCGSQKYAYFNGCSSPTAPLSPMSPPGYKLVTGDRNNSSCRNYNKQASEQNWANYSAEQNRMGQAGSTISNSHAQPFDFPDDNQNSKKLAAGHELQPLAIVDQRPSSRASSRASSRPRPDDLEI

`COc1cc2c(cc1O)C[C@H]1c3c(cc(O)c(OC)c3-2)CCN1C` [boldine] gave an IC50 of 12.5 µM.
